Counter-ions that a name gives are not always drawn.
Tests used:
[1] = test system: APO-induced sniffing; assay: Inhibition of APO-induced sniffing stereotypy; format: in vivo, CD-1 (Charles River) male mice; conditions: for ED50: Mus musculus, po, mice, 1 mg/kg s.c. apomorphine 60 min after pretreatment; for Sniff./Climb. ratio: ratio of ED50 sniffing to ED50 climbing, p.o.
[2] = target: D-2 dopamine receptor (Homo sapiens, UniProt P14416); assay: biochemical; format: binding; conditions: 0.5 nM 3H-spiperone
[3] = test system: APO-induced climbing; assay: Inhibition of apomorphine (APO) induced climbing; format: in vivo, CD-1 (Charles River) male mice; conditions: for ED50: Mus musculus, po, mice, 1 mg/kg s.c. apomorphine 60 min after pretreatment
Procedure: CD-1 (Charles River) male mice weighing 22 to 24 g were pretreated with 1% Tween 80 solution of the compound to be tested. […] Six animals were used in each group. At 60 minutes after pretreatment, the animals were treated subcutaneously with 1 mg/kg of apomorphine (APO). From the 10th to 25th minute following APO treatment the animals were scored in each minute as follows: 0: all the four legs of the animal are on the ground; 1: the animal climbs on the grid by its both forelegs; 2: the animal climbs on the grid by all its four legs. The inhibitory effect was related to the APO control group, which could achieve 32 scores as a maximum.

[4] = target: α-1 receptor; assay: Alpha-1 receptor binding (3H-prazosin)
Procedure: The non-specific binding was measured with 10 μM (±)-phentolamine.

[5] = target: T1, 5-HT1A subtype of serotonin receptor (Rattus norvegicus, UniProt P19327); assay: biochemical; format: binding; conditions: for IC50: 0.5 nM 3H-8-OH-DPAT; for D-2/5-HT1A ratio: ratio of receptor IC50 values
T1 sequence (P19327 1-422): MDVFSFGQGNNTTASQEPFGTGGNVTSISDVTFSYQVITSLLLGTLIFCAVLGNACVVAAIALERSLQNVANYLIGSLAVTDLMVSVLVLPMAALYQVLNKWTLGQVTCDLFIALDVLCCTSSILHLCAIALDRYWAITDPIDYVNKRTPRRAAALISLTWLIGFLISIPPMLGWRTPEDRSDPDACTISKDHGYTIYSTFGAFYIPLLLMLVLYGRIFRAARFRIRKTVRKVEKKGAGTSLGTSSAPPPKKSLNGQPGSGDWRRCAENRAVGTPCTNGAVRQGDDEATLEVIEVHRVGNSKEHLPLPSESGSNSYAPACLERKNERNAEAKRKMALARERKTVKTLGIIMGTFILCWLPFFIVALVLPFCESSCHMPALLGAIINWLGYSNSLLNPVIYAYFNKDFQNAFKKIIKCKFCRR
Procedure: Determination of the 5-HT1A subtype of serotonin receptor was carried out by a modification [M. D. Hall et al.: J. Neurochem. […] 0.5 nM ^3 H-8-OH-DPAT was used as ligand, where non-specific binding was determined by using 10 μM serotonin.

D-2 dopamine receptor, sequence (P14416 whole entry): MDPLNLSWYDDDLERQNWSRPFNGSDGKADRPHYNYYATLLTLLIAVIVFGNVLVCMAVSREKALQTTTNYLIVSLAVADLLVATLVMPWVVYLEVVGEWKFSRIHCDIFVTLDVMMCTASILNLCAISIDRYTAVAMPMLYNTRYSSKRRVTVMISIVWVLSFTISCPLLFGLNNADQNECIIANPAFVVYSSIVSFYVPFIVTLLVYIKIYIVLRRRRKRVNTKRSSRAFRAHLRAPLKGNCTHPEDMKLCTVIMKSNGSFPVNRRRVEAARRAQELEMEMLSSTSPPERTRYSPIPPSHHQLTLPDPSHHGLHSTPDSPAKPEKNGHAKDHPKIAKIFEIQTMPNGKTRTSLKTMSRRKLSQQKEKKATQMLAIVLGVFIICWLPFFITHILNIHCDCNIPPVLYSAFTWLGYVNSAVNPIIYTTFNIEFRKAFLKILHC

Structure (SMILES)	IC50 [2] [nM]	IC50 [4] [nM]	IC50 [5] [nM]	ED50 [1] [mg/kg]	Sniff./Climb. ratio [1]	ED50 [3] [mg/kg]	ED50 values (climbing) compared with clozapine, in words ([3]; oral, relative to clozapine)	oral activity as compared to clozapine ([3]; oral, relative to clozapine)	D-2/5-HT1A ratio [5]	activity on 5-HT1A receptor subtypes, in words [5]
COc1ccccc1N1CCN(CCCOc2ccc(-c3cn4ccccc4n3)cc2)CC1 [Compound 4510067, 1-(2-Methoxyphenyl)-4-{3-[4-(2-imidazo[1,2-a]pyridinyl)phenoxy]propyl}piperazine]	17	57	202	16.2	2.3	7.2				
COc1ccccc1N1CCN(CCCOc2ccc(-c3cc4ccccn4c3)cc2)CC1.Cl.Cl [Compound 4510423, 1-(2-Methoxyphenyl)-4-{3-[4-[2-indolizinyl)phenoxy]propyl}piperazine dihydrochloride]	77	359	1000	> 10	> 2.4	4.1				
COc1ccccc1N1CCN(CCOc2ccc(-c3cn4ccsc4n3)cc2)CC1.Cl.Cl.Cl [Compound 4510470, 1-(2-Methoxyphenyl)-4-{2-[4-[6-imidazo[2,1-b]thiazolyl]phenoxy]ethyl}piperazine trihydrochloride]	73	101	38	4.5	5.6	0.8		ten-fold	1.9	
COc1ccccc1N1CCN(CCCOc2ccc(-c3cn4ccsc4n3)cc2)CC1 [Compound 4510472, 1-(2-Methoxyphenyl)-4-{3-[4-[6-imidazo[2,1-b]thiazolyl)phenoxy]propyl}piperazine]	23	56	96	~10	2.9	3.4	lower than or equal to that of clozapine			
COc1ccccc1N1CCN(CCCOc2ccc(-c3cn4c(n3)SCC4)cc2)CC1 [Compound 4510473, 1-(2-Methoxyphenyl)-4-{3-[4-[6-(2,3-dihydroimidazo[2,1-b]thiazol)yl]phenoxy]jpropyl}piperazine]	29	48	122	> 30	> 2.0	15.3				
COc1ccccc1N1CCN(CCCCOc2ccc(-c3cc4ccccn4c3)cc2)CC1 [Compound 4510613, 1-(2-Methoxyphenyl)-4-{4-[4-(2-indolizinyl)phenoxy]butyl}piperazine]	99	842	243	> 30	> 2.0	14.8				
COc1ccccc1N1CCN(CCCCOc2ccc(-c3cn4ccsc4n3)cc2)CC1.Cl.Cl.Cl [Compound 4510916, 1-(2-Methoxyphenyl)4-{4-[4-[6-imidazo[2,1-b]thiazolyl]phenoxy]butyl}piperazine trihydrochloride]	55	28	8	~30	> 4.9	6.1			6.9	especially strong activity

The remaining compounds from weak to strong by IC50 [2], led by results:

IC50 [2] [nM]	IC50 [4] [nM]	IC50 [5] [nM]	Structure (SMILES)	ED50 [1] [mg/kg]	Sniff./Climb. ratio [1]	ED50 [3] [mg/kg]	ED50 values (climbing) compared with clozapine, in words ([3]; oral, relative to clozapine)	oral activity as compared to clozapine ([3]; oral, relative to clozapine)	D-2/5-HT1A ratio [5]	activity on 5-HT1A receptor subtypes, in words [5]
258	542	802	COc1ccccc1N1CCN(CCOc2ccc(-c3cc4ccccn4c3)cc2)CC1.Cl.Cl [Compound 4510407, 1-(2-Methoxyphenyl)-4-{2-[4-(2-indolizinyl)phenoxy]ethyl}piperazine dihydrochloride]			> 30				
133	63	10	COc1ccccc1N1CCN(CCOc2ccc(-c3cn4cccnc4n3)cc2)CC1 [Compound 4510411, 1-(2-Methoxyphenyl)-4-{2-[4-(2-imidazo[1,2-a]pyrimidinyl)phenoxy]ethyl}piperazine]	> 30	> 8.8	3.4	lower than or equal to that of clozapine			
117	75	29	COc1ccccc1N1CCN(CCOc2ccc(-c3cn4c(n3)SCC4)cc2)CC1 [Compound 4510471, 1-(2-Methoxyphenyl)-4-{2-[4-[6-(2,3-dihydroimidazo[2,1-b]thiazol)-yl]phenoxy]ethyl}piperazine trihydrochloride]	> 30	4.8	6.3				
69	34	21	COc1ccccc1N1CCN(CCCCOc2ccc(-c3cn4ccccc4n3)cc2)CC1 [Compound 4510915, 1-(2-Methoxyphenyl)-4-{4-[4-(2-imidazo[1,2-a]pyridinyl)phenoxy]butyl}piperazine]			10.7				
56	36	70	COc1ccccc1N1CCN(CCOc2ccc(-c3cn4ccccc4n3)cc2)CC1 [Compound 4510408, 1-(2-Methoxyphenyl)-4-{2-[4-(2-imidazo[1,2-a]pyridinyl)phenoxy]ethyl}piperazine]	~10	4.1	2.4	lower than or equal to that of clozapine			
56	16	9	COc1ccccc1N1CCN(CCCCOc2ccc(-c3cn4c(n3)SCC4)cc2)CC1 [Compound 4510991, 1-(2-Methoxyphenyl)-4-{4-[4-[6-(2,3-dihydroimidazo[2,1-b]thiazol)-yl]phenoxy]butyl}piperazine]	> 30	> 1.0	~30				especially strong activity
55	22	12	COc1ccccc1N1CCN(CCCCOc2ccc(-c3cn4cccnc4n3)cc2)CC1 [Compound 4510645, 1-(2-Methoxyphenyl)-4-{4-[4-(2-imidazo[1,2-a]pyrimidinyl)phenoxy]butyl}piperazine]	> 30	> 1.5	20.5				
34	30	66	COc1ccccc1N1CCN(CCCOc2ccc(-c3cn4cccnc4n3)cc2)CC1 [Compound 4510424, 1-(2-Methoxyphenyl)-4-{3-[4-(2-imidazo[1,2-a]pyrimidinyl)phenoxy]propyl}piperazine]	> 30	3.4	8.9				
